Measured values reported in ChEMBL document CHEMBL1201862, “PubChem BioAssay data set” (2004).
Activity calls are given as the source filed them.

Legend:
[1] = biological target: T1, Orexin/Hypocretin receptor type 1 (Homo sapiens, UniProt O43613); test: Homogeneous Time Resolved Fluorescence (HTRF)-based cell-based high throughput dose response assay for antagonists of the orexin 1 receptor (OX1R; HCRTR1). [Related pubchem assays (depositor defined):AID434989, AID435008, AID463079, AID485270, AID492963, AID492964, AID492965, AID493232, AID504717, AID504718]; type: functional
T1 sequence (O43613 whole entry): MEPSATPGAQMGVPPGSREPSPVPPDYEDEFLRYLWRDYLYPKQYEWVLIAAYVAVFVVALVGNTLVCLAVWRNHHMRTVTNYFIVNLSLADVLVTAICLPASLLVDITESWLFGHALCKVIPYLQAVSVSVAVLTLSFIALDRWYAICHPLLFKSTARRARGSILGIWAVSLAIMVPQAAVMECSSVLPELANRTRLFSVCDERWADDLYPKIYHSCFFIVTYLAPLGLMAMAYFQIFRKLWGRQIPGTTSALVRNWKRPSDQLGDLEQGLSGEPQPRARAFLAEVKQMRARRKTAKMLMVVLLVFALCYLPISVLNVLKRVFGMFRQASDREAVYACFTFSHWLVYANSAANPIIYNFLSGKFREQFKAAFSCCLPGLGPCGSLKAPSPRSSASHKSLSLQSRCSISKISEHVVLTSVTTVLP

CHO-K1 = test: (§1) Counterscreen for antagonists of the orexin 1 receptor (OX1R; HCRTR1): Homogeneous time resolved fluorescence (HTRF)-based cell-based dose response assay to identify antagonists of the parental CHO-K1 cell line. [Related pubchem assays (depositor defined):AID434989, AID435008, AID463079, AID485270, AID492963, AID492964, AID492965, AID493232, AID504699, AID504701]; type: functional; settings: Cricetulus griseus
[2] = biological target: T1, Orexin/Hypocretin receptor type 1; test: Fluorescence-based cell-based high throughput dose response assay for antagonists of the orexin 1 receptor (OX1R; HCRTR1). [Related pubchem assays (depositor defined):AID434989, AID435008, AID463079, AID485270, AID492963, AID492964, AID492965, AID493232, AID504717, AID504718]; type: functional
[3] = as §1, with “Fluorescence-based” for “Homogeneous time resolved fluorescence (HTRF)-based”, “cell-based high throughput” for “cell-based”, “CHO” for “CHO-K1”; type: functional
Cytochrome P450 2C9 = Cytochrome P450 2C9 (Homo sapiens, UniProt P11712)
Cytochrome P450 3A4 = Cytochrome P450 3A4 (Homo sapiens, UniProt P08684);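 also: CYP3A4 tested as one member of a cytochrome P450 panel screen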
[4] = biological target: T2, Tyrosine-protein phosphatase non-receptor type 22 (Homo sapiens, UniProt Q9Y2R2); type: functional
T2 sequence (Q9Y2R2 whole entry): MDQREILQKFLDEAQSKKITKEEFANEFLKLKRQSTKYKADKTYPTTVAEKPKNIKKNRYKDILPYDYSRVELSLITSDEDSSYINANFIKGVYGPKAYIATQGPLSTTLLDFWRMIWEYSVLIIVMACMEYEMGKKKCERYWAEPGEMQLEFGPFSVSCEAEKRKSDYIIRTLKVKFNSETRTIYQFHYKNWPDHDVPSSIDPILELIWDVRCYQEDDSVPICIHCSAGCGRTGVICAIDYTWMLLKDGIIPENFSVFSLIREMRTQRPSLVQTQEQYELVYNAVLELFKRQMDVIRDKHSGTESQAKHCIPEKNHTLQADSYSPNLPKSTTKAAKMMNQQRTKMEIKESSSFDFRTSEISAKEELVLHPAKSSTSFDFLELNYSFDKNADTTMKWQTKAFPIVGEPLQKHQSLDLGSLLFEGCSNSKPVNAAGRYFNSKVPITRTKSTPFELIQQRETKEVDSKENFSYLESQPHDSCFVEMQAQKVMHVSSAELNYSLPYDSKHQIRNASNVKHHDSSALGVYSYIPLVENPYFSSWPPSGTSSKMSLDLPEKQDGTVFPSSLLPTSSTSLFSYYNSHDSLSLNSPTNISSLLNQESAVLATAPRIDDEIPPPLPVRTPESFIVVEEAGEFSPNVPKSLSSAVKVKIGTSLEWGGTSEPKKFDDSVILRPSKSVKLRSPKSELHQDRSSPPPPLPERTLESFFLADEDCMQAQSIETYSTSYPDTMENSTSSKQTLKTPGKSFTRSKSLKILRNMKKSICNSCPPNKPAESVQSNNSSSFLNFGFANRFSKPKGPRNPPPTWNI

[5] = biological target: T2, Tyrosine-protein phosphatase non-receptor type 22; type: functional; remark: listed apart in the source
[6] = biological target: T3, Tyrosine-protein phosphatase non-receptor type 7 (Homo sapiens, UniProt P35236); type: functional
T3 sequence (P35236 whole entry): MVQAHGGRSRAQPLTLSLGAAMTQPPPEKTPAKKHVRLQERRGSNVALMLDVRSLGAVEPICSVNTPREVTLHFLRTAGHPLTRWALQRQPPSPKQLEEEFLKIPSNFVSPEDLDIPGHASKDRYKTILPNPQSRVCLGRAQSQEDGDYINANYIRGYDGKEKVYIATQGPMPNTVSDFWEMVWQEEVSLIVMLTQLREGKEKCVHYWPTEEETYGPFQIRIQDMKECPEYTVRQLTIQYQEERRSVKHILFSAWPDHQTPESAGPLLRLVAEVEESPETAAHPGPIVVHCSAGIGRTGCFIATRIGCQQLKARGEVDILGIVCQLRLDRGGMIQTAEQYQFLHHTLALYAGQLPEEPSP

[7] = biological target: T4, Ubiquitin-conjugating enzyme E2 N (Homo sapiens, UniProt P61088); type: functional
T4 sequence (P61088 whole entry): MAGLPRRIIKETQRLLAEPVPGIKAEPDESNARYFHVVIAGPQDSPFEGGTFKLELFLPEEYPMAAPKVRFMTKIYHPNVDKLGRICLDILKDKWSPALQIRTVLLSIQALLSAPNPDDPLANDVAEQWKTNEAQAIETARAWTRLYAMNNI

Bcl-2-related protein A1 = biological target: T5, Bcl-2-related protein A1 (Mus musculus, UniProt Q07440); type: functional;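 also: confirmatory dose–response counterscreen on Bfl-1, used to check hits from a UBC13 polyubiquitin inhibitor campaign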
T5 sequence (Q07440 whole entry): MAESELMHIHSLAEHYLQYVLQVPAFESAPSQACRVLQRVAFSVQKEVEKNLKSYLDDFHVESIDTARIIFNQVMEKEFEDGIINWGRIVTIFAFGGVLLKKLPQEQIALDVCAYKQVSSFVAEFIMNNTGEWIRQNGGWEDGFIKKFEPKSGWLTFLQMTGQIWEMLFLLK

[8] = biological target: T4, Ubiquitin-conjugating enzyme E2 N; type: functional; remark: listed apart in the source
Cytochrome P450 2D6 = Cytochrome P450 2D6 (Homo sapiens, UniProt P10635);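 also: CYP2D6 member of a cytochrome P450 panel assay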
[9] = biological target: T6, Short transient receptor potential channel 4 (Mus musculus, UniProt Q9QUQ5); test: calcium entry via TRPC4 opening agents – cell-based, HEK293 TRPC4/mu-opioid, Fluo-4 calcium, dose response (AID 434937); type: functional
T6 sequence (Q9QUQ5 whole entry): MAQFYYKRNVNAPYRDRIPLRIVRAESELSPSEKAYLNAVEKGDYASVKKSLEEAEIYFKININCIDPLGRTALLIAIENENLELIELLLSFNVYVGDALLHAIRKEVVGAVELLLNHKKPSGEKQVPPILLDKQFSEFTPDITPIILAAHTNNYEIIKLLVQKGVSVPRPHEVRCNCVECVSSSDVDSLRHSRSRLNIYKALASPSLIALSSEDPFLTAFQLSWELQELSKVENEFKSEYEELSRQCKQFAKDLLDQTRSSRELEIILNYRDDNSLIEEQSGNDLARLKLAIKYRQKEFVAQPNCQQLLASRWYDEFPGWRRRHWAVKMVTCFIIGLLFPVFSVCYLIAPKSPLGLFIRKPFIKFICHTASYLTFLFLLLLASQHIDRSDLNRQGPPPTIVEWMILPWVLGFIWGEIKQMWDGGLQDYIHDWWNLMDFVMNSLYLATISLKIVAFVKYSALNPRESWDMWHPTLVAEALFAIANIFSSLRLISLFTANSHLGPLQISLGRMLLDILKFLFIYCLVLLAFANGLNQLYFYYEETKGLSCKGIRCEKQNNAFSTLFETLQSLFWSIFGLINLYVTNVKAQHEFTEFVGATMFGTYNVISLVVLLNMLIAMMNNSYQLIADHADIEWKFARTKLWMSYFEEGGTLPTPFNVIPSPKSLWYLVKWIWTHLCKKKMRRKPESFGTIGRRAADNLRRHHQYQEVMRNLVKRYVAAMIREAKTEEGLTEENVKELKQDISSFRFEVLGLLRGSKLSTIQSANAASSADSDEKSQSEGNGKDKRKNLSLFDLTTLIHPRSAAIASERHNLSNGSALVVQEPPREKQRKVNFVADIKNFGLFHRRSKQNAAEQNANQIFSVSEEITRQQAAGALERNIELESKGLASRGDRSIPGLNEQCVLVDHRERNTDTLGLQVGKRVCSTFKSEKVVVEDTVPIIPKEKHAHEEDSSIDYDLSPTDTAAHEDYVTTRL

Beta-lactamase [10] = biological target: T7, Beta-lactamase (Pseudomonas aeruginosa, UniProt Q79MP6); test: […] counterscreen for selective VIM-2 inhibitors: dose response biochemical high throughput screening assay to identify inhibitors of IMP-1 metallo-beta-lactamase.
Beta-lactamase [11] = biological target: Beta-lactamase (Salmonella choleraesuis (strain SC-B67), UniProt Q5J463); test: Epi-absorbance-based counterscreen for selective VIM-2 inhibitors: dose response biochemical high throughput screening assay to identify inhibitors of TEM-1 serine-beta-lactamase.
Cytochrome P450 1A2 = biological target: T8, Cytochrome P450 1A2 (Homo sapiens, UniProt P05177);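 also: PubChem cytochrome P450 panel assay, CYP1A2 panel member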
T8 sequence (P05177 whole entry): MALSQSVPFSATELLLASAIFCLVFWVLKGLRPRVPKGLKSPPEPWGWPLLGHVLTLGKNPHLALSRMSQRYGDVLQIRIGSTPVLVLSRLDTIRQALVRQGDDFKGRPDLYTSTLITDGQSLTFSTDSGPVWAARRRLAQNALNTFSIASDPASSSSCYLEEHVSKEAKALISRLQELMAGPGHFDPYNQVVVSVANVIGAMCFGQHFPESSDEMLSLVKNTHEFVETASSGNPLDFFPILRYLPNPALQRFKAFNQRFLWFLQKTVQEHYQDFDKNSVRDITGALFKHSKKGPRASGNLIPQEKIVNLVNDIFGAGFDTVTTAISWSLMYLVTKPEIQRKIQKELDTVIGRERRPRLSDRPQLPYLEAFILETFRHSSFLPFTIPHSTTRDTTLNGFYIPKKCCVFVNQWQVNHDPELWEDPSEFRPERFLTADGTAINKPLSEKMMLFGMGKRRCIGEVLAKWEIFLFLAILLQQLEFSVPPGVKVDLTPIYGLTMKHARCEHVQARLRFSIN

Beta-lactamase [12] = biological target: T7, Beta-lactamase; test: inhibition of IMP-1 beta-lactamase activity – biochemical, epi-absorbance, selectivity assay for VIM-2 inhibitor project, dose response (AID 1920)
[13] = biological target: Luciferin 4-monooxygenase (Photinus pyralis, UniProt P08659); test: inhibition of purified Photinus pyralis luciferase – biochemical, luminescence, dose response (AID 1891)
[14] = Luminescence Cell-Based Dose Confirmation HTS to Identify Inhibitors of Platelet Dense Granule Release. [Related pubchem assays: 1663 (Primary HTS), 1678 (Summary of Project)]; type: functional

Cytochrome P450 3A4, sequence (P08684 whole entry): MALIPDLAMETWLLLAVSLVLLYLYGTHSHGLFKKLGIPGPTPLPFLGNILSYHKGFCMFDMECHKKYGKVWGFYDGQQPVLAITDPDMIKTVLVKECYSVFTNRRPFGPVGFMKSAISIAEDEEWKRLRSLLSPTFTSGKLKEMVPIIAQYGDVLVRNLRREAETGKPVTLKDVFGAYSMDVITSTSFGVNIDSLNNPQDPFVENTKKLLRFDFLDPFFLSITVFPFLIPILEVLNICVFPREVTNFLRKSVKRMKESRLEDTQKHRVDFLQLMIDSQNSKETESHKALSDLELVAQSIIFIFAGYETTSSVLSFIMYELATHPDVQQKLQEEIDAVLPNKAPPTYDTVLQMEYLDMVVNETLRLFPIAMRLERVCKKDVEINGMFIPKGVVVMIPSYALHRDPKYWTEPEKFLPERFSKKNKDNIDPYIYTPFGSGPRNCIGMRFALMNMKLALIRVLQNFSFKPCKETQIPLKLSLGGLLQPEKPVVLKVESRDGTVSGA
T7 sequence (Q79MP6 whole entry): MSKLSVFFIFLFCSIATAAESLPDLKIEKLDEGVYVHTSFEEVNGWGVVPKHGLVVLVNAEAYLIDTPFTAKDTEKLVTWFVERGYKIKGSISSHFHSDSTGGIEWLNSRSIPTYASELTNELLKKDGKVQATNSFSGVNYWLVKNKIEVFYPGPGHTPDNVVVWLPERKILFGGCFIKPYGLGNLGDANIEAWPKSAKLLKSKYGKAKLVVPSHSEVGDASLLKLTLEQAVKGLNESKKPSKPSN
Cytochrome P450 2D6, sequence (P10635 whole entry): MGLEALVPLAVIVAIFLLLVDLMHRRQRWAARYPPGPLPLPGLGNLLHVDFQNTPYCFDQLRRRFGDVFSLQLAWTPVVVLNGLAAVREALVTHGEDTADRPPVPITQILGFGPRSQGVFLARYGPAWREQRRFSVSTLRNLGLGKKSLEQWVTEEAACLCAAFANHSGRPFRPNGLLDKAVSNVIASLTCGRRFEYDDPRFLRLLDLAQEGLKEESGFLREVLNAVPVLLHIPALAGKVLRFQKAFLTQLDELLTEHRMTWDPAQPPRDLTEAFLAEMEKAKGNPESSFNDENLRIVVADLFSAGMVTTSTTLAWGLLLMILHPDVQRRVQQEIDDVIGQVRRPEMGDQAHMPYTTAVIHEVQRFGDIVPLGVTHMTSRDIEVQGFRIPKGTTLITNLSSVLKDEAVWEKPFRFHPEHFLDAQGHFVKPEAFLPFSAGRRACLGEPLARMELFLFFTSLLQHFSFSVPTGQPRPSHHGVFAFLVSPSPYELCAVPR
Cytochrome P450 2C9, sequence (P11712 whole entry): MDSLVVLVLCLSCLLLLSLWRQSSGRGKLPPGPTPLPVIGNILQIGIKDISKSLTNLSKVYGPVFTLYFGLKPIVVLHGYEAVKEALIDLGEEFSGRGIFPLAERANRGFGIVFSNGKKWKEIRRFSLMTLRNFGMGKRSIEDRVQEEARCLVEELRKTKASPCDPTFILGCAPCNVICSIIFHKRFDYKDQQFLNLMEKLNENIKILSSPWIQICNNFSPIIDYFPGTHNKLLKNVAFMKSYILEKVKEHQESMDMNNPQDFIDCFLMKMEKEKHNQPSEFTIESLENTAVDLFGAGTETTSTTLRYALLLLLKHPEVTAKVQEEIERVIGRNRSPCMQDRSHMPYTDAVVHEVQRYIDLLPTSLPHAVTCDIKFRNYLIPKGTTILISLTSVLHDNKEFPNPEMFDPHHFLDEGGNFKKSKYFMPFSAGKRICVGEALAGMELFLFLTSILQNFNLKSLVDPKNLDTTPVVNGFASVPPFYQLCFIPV
Luciferin 4-monooxygenase, sequence (P08659 whole entry): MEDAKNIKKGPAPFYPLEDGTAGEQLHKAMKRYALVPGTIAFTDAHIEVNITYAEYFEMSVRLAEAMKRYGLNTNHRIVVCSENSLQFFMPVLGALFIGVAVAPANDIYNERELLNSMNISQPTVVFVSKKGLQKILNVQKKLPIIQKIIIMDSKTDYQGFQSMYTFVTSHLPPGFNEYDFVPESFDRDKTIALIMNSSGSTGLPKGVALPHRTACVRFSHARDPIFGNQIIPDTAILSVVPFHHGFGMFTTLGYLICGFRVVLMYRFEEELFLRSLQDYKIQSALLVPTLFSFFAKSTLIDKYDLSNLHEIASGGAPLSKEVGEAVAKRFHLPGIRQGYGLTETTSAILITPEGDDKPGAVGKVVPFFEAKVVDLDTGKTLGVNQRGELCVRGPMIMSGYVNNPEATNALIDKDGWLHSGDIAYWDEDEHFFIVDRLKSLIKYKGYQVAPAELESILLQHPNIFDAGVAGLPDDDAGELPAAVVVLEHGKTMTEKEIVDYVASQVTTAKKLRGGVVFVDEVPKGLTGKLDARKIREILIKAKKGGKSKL
Beta-lactamase (Salmonella choleraesuis (strain SC-B67), UniProt Q5J463), sequence (Q5J463 whole entry): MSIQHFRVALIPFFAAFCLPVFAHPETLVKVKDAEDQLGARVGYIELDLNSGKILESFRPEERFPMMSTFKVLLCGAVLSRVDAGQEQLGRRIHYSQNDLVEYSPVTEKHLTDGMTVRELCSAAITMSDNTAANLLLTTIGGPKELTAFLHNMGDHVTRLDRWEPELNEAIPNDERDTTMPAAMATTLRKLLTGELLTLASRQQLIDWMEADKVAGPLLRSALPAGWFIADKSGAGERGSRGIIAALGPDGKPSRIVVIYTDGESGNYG

Oc1ccccc1-c1nc(NCC2CCCO2)c2ccccc2n1 (stereo not given)
IC50 [1]: 3.73 µM (active) | IC50 (CHO-K1): > 66.2 µM (inactive) | IC50 [2]: 8.66 µM (active) | IC50 [3]: 45.8 µM (inactive)

COC(=O)COc1ccc(/C=C2/SC(=O)N(CC(=O)N3CCCC3)C2=O)cc1Br
AC50 (Cytochrome P450 2C9): 10 µM (inconclusive) | AC50 (Cytochrome P450 3A4): inconclusive

CC1Cc2ccccc2N1CC(=O)Nc1cccc(S(N)(=O)=O)c1 (stereo not given)
IC50 [4]: > 79.4 µM (inactive) | IC50 [5]: > 79.4 µM (inactive) | IC50 [6]: > 79.4 µM (inactive)

Cc1c(NC(=O)CCCN2C(=O)c3cccc4cccc(c34)C2=O)c(=O)n(-c2ccccc2)n1C
IC50 [7]: 18.5 µM (active) | IC50 (Bcl-2-related protein A1): > 20 µM (inactive) | IC50 [8]: 8.02 µM (active)

COc1ccc(Cc2nnc(NC(=O)c3ccccc3F)s2)cc1OC
IC50 [4]: > 79.4 µM (inactive) | IC50 [5]: > 79.4 µM (inactive) | IC50 [6]: > 79.4 µM (inactive)

O=C(Cn1cnc2ccccc2c1=O)NCCC(=O)Nc1ccc2c(c1)OCCO2
AC50 (Cytochrome P450 2D6): inconclusive | AC50 (Cytochrome P450 3A4): inconclusive

COc1ccc(-c2nn(-c3ccccc3)cc2CNCc2cccnc2)c(F)c1
EC50 [9]: 5.96 µM (active)

CCCC(=O)Nc1nnc(SCC(=O)NCc2cccs2)s1
IC50 (Beta-lactamase [10]): > 59.6 µM (inactive) | IC50 (Beta-lactamase [11]): > 59.6 µM (inactive) | AC50 (Cytochrome P450 1A2): 10 µM (inconclusive) | IC50 (Beta-lactamase [12]): > 59.6 µM (inactive) | AC50 (Cytochrome P450 3A4): inconclusive

CN1CCCC(OC(=O)c2cc(Br)ccc2Cl)C1 (stereo not given)
EC50 [9]: 0.211 µM (active) | EC50 [13]: > 112 µM (not active) | EC50 [14]: > 56.1 µM (not active)

CCN(CC(=O)NCc1cccs1)C(=O)c1cccc(S(=O)(=O)Nc2ccccc2OC)c1
IC50 [7]: 17.1 µM (active) | IC50 (Bcl-2-related protein A1): > 20 µM (inactive) | IC50 [8]: 11.3 µM (active)

Cc1csc2c(N3CCN(C(=O)Nc4ccc(OC(F)(F)F)cc4)CC3)ncnc12
EC50 [9]: 1.88 µM (active)
